Assay results as given in article PMC7516806, “Hybrid Antimicrobial Peptide Targeting Staphylococcus aureus and Displaying Anti-infective Activity in a Murine Model” (Frontiers in Microbiology, 2020).
Positions of bridges follow the written chain, without caps; N, C: chain ends. Residues, ends and D or L forms follow the SMILES beside them.

How the values were obtained:
[1] = test system: S. aureus 29213; assay: Mouse model of subcutaneous infection; assay type: in vivo, ICR mice; settings: 80× MIC
Procedure: (§1) To assess the antimicrobial activity of the peptide in vivo, a mouse model of subcutaneous infection was used ([Huang et al., 2011a]; [Omolo et al., 2017]). Female Institute for Cancer Research (ICR) mice (SPF, 20–25 g) were purchased from WeiTonglihua Co., Ltd. (Beijing, China), with eight animals per group. The mice were shaved on their backs and disinfected. S. aureus 29213 (100 μL) at a concentration of 1 × 10^8 CFU/mL was injected into the superficial skin of the mice. The mice were divided into four groups (n = 4), as follows: S. aureus + saline, S. aureus + S2 (80× MIC, 100 μL), S. aureus + vancomycin (Van) (80× MIC, 100 μL), and saline. S2, vancomycin, and saline were injected at the same site 1 h after infection. The mice were monitored over 24 h in an environmentally controlled room at 25 ± 1°C and 55 ± 5% relative humidity with a 12 h light/dark cycle.
(§2) To image the infected skin tissues, the mice were euthanized 24 h after the injection of S. aureus. Samples were fixed in 4% buffered paraformaldehyde and subjected to hematoxylin/eosin (HE) staining. The antimicrobial activity in vivo was determined by colony counting of infected skin samples. Skin homogenates were serially diluted in saline and incubated at 37°C for 24 h.

[2] = test system: S. aureus 29213; assay: Histology (HE) of infected skin tissue; assay type: in vivo, ICR mice; settings: 24 h after injection of S. aureus
Procedure: as §1, §2

[3] = test system: Staphylococcus aureus 29213; assay: Bacterial resistance development, serial passaging; assay type: cell-based; settings: serial passage at sub-MIC for 15 days
Description: Staphylococcus aureus 29213 was employed to assess the development of resistance by the serial passaging method, as previously described ([Lyu et al., 2017]). Minimum inhibitory concentration testing was first conducted for all of the compounds to be tested, as described above. S. aureus was harvested from 96-well plates of sub-MIC levels, diluted in MHB to a concentration of 2–7 × 10^5 CFU/mL, and then subjected to MIC determination for up to 15 days. The change in MIC values determines the development of antibiotic resistance in S. aureus.

[4] = test system: S. pullorum 7913; assay: MIC, modified microtiter dilution; assay type: cell-based, Salmonella pullorum; settings: MHB, 2–7 × 10^5 CFU/ml, 37°C, 24 h, no turbidity, at least three independent repeats
Description: (§3) The experiment was repeated at least three times independently.

[5] = test system: L. plantarum 8014; assay: MIC, modified microtiter dilution; assay type: cell-based, Lactobacillus plantarum; settings: 2–7 × 10^5 CFU/ml, 37°C, 24 h, no turbidity, at least three independent repeats
Description: as §3

[6] = Systemic toxicity after intraperitoneal injection; assay type: in vivo, mice; settings: 100 μL
Procedure: The mice were inoculated by intraperitoneal injection with 100 μL of S2 (80 MIC), and saline was used as the control. Signs of animal distress and changes in body weight were closely monitored. After five days, all the mice were euthanized, and the blood biochemistry parameters were determined ([Mishra et al., 2019]).

[7] = test system: S. typhimurium 14028; assay: MIC, modified microtiter dilution; assay type: cell-based, Salmonella typhimurium; settings: MHB, 2–7 × 10^5 CFU/ml, 37°C, 24 h, no turbidity, at least three independent repeats
Description: as §3

[8] = test system: S. typhimurium 7731; assay: MIC, modified microtiter dilution; assay type: cell-based, Salmonella typhimurium; settings: MHB, 2–7 × 10^5 CFU/ml, 37°C, 24 h, no turbidity, at least three independent repeats
Description: as §3

[9] = mean, intraperitoneal 80 MIC, after five days

## CC(C)C[C@H](NC(=O)[C@H](CC(C)C)NC(=O)[C@H](Cc1c[nH]c2ccccc12)NC(=O)[C@H](Cc1c[nH]c2ccccc12)NC(=O)[C@H](Cc1c[nH]c2ccccc12)NC(=O)[C@H](CCCNC(=N)N)NC(=O)[C@@H]1CSSC[C@H](N)C(=O)N[C@@H](C)C(=O)N[C@@H](CO)C(=O)N[C@@H](Cc2ccc(O)cc2)C(=O)N[C@@H](Cc2ccccc2)C(=O)N1)C(N)=O [Peptide S2] (H-CASYFCRWWWLL-NH2; disulfide 1-6; N-terminus assumed)
[1]; 100 μL injected at the infected site 1 h after infection, skin homogenate colony count after 24 h, P < 0.01
  decrease in bacterial colonies at infection site versus control group: 10 fold
[1]; 100 μL, 1 h after infection
  ulceration (lesion) size, length × width: significantly reduced ulceration sizes
[2]
  histomorphological changes of skin tissue (HE): good recovery
[3]
  change in MIC value, 15th day versus first day: remained almost constant
[4]
  MIC S. pullorum 7913: >64 µM
[5]
  MIC L. plantarum 8014: >64 µM
[6]; intraperitoneal, 80 MIC, after five days
  blood parameters versus saline treatment group: unaltered
[6]; intraperitoneal, 80 MIC, monitored five days
  clinical signs of toxicity: no clinical signs indicative of toxicity
[6]; [9]
  blood Cl-: 111.25 mmol/L
  blood Creatinine: 12.4 µM
  blood Glucose: 10.17 mmol/L
  blood I.Phos.: 2.335 mmol/L
  blood K+: 5.84 mmol/L
  blood Na+: 149 mmol/L
  blood Urea: 9.43 mmol/L
[7]
  MIC S. typhimurium 14028: >64 µM
[8]
  MIC S. typhimurium 7731: >64 µM
